Test results as given in patent publication US20260355196A1, “INHIBITORS AND DEGRADERS OF PIP4K PROTEIN” (Larkspur Biosciences, Inc., priority 2023, published 2026).

Molecular target: T1, PIP4K2C (Homo sapiens, UniProt Q8TBX8)
T1 sequence (Q8TBX8 1-421): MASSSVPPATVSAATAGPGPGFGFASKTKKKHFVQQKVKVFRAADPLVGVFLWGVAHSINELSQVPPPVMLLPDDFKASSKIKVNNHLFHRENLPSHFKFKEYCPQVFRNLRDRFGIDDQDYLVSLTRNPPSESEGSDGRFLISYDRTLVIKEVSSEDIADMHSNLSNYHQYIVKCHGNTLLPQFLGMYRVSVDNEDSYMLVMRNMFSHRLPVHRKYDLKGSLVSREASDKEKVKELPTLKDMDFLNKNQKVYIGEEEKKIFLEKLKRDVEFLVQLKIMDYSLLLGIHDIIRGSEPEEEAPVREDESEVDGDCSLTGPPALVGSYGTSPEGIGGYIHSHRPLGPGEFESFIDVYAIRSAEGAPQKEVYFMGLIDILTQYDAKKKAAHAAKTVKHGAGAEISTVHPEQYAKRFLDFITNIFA
Assay: HiBiT PIP4K2C degradation assay in MOLT-4 cells (endogenous PIP4K2C C-terminally tagged with HiBiT)
Format: cell-based
Set-up: untagged in primary human PBMCs and monocyte-derived dendritic cells
Settings: 6 hours of incubation time, rather than 24 hours; MOLT-4, top concentration 10 micromolar; read-out: HiBIT-degradation MOLT4 PIP4k2C DC50 (6 hours, marked *)
Procedure, shortened: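 DC50 derived by Hill fit of luminescence from Nano-Glo HiBiT lytic detection. Cells were HiBiT knock-in MOLT-4 (C-terminal tag on endogenous PIP4K2C), exposed 6 h or 24 h at 37 C to compound, top concentration 10 micromolar, 3-fold steps, 10 points, duplicates.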

Row | DC50 | SMILES
1 | < 500 nM | O=C1CCC(Nc2ccc(C3CCN([C@H]4CC[C@H](NC(=O)[C@H]5CC[C@H](Nc6ncc(F)c(-c7cccc(N8CCCOC8=O)c7)n6)CC5)CC4)CC3)c(F)c2)C(=O)N1 (stereo partly drawn) [Compound 563, trans-N-(trans-4-(4-(4-((2,6-dioxopiperidin-3-yl)amino)-2-fluorophenyl)piperidin-1-yl)cyclohexyl)-4-((5-fluoro-4-(3-(2-oxo-1,3-oxazinan-3-yl)phenyl)pyrimidin-2-yl)amino)cyclohexane-1-carboxamide]
2 | < 500 nM | O=C1CCC(Nc2ccc(N3CCN([C@H]4CC[C@H](NC(=O)[C@H]5CC[C@H](Nc6ncc(F)c(-c7cccc(N8CCCCC8=O)c7)n6)CC5)CC4)CC3)c(F)c2)C(=O)N1 (stereo partly drawn) [Compound 564, (1r,4R)—N-((1r,4R)-4-(4-(4-((2,6-dioxopiperidin-3-yl)amino)-2-fluorophenyl)piperazin-1-yl)cyclohexyl)-4-((5-fluoro-4-(3-(2-oxopiperidin-1-yl)phenyl)pyrimidin-2-yl)amino)cyclohexane-1-carboxamide]
3 | < 500 nM | O=C1CCC(Nc2ccc(C3CCN([C@H]4CC[C@H](NC(=O)[C@H]5CC[C@H](Nc6ncc(F)c(-c7cccc(N8CCCCC8=O)c7)n6)CC5)CC4)CC3)c(F)c2)C(=O)N1 (stereo partly drawn) [Compound 565, trans-N-(trans-4-(4-(4-((2,6-dioxopiperidin-3-yl)amino)-2-fluorophenyl)piperidin-1-yl)cyclohexyl)-4-((5-fluoro-4-(3-(2-oxopiperidin-1-yl)phenyl)pyrimidin-2-yl)amino)cyclohexane-1-carboxamide]
4 | < 500 nM | O=C1CCC(Nc2ccc(C3CCN([C@H]4CC[C@H](C(=O)N[C@H]5CC[C@H](Nc6ncc(F)c(-c7cccc(N8CCCCC8=O)n7)n6)CC5)CC4)CC3)c(F)c2)C(=O)N1 (stereo partly drawn) [Compound 566, trans-(1r,4R)-4-(4-(4-((2,6-dioxopiperidin-3-yl)amino)-2-fluorophenyl)piperidin-1-yl)-N-((1r,4R)-4-((5-fluoro-4-(6-(2-oxopiperidin-1-yl)pyridin-2-yl)pyrimidin-2-yl)amino)cyclohexyl)cyclohexane-1-carboxamide]
5 | < 500 nM | O=C1CCC(Nc2ccc(C3CCN([C@H]4CC[C@H](C(=O)N[C@H]5CC[C@H](Nc6ncc(F)c(-c7cccc(-n8ccccc8=O)n7)n6)CC5)CC4)CC3)c(F)c2)C(=O)N1 (stereo partly drawn) [Compound 567, trans-(1r,4R)-4-(4-(4-((2,6-dioxopiperidin-3-yl)amino)-2-fluorophenyl)piperidin-1-yl)-N-((1r,4R)-4-((5-fluoro-4-(2-oxo-2H-[1,2′-bipyridin]-6′-yl)pyrimidin-2-yl)amino)cyclohexyl)cyclohexane-1-carboxamide]
6 | < 500 nM | O=C1CCC(Nc2ccc(C3CCN([C@H]4CC[C@H](C(=O)N[C@H]5CC[C@H](Nc6ncc(F)c(-c7cccc(N8CCOCC8=O)c7)n6)CC5)CC4)CC3)c(F)c2)C(=O)N1 (stereo partly drawn) [Compound 568, trans-(1r,4R)-4-(4-(4-((2,6-dioxopiperidin-3-yl)amino)-2-fluorophenyl)piperidin-1-yl)-N-((1r,4R)-4-((5-fluoro-4-(3-(3-oxomorpholino)phenyl)pyrimidin-2-yl)amino)cyclohexyl)cyclohexane-1-carboxamide]
7 | < 500 nM | O=C1CCC(Nc2ccc(C3CCN([C@H]4CC[C@H](C(=O)N[C@H]5CC[C@H](Nc6ncc(F)c(-c7ccnc(C8(O)CCC8)c7)n6)CC5)CC4)CC3)c(F)c2)C(=O)N1 (stereo partly drawn) [Compound 569, trans-(1r,4R)-4-(4-(4-((2,6-dioxopiperidin-3-yl)amino)-2-fluorophenyl)piperidin-1-yl)-N-((1r,4R)-4-((5-fluoro-4-(2-(1-hydroxycyclobutyl)pyridin-4-yl)pyrimidin-2-yl)amino)cyclohexyl)cyclohexane-1-carboxamide]
